Columns and labels:
[1] = for surface tension liquid-gas: Ring tensiometer; for viscosity / speed of sound / mass density: 101.33 kPa, Liquid; for speed of sound: Pulse-echo method; for mass density: Vibrating tube method
[2] = refractive index (Na D-line) (dimensionless); details: 101.33 kPa, Liquid, Standard Abbe refractometry

CCCC[n+]1ccc(C)cc1.F[B-](F)(F)F [1-butyl-4-methylpyridinium tetrafluoroborate]
Details	mass density, [1] [kg/m3]	refractive index, [2]	speed of sound, [1] [m/s]	surface tension liquid-gas, [1] [mN/m]	viscosity, [1] [mPa·s]
298.15 K	1190	1.4507	1602.3	45.4	202.86
303.15 K	1186	1.4502	1589.7	45.1	146.57
308.15 K	1183	1.4495	1577.4	44.8	108.7
313.15 K	1179	1.4488	1565.2	44.5	82.49
318.15 K	1176	1.4482	1553.2	44.2	63.94
323.15 K	1173	1.4475	1541.2	43.9	50.51
328.15 K	1169	1.4469	1529.6	43.5	40.6
333.15 K	1166	1.4463	1517.9	43.2	33.14

CCCCn1cc[n+](C)c1.F[P-](F)(F)(F)(F)F [1-butyl-3-methylimidazolium hexafluorophosphate]
Details	mass density, [1] [kg/m3]	refractive index, [2]	speed of sound, [1] [m/s]	surface tension liquid-gas, [1] [mN/m]	viscosity, [1] [mPa·s]
298.15 K	1367	1.4101	1443.6	43	273.94
303.15 K	1363	1.4085	1431.6	42.6	203.2
308.15 K	1359	1.4081	1419.8	42.2	153.99
313.15 K	1355	1.407	1408.3	41.9	118.96
318.15 K	1351	1.4068	1396.9	41.7	93.44
323.15 K	1347	1.4058	1385.8	41.2	74.6
328.15 K	1343	1.4053	1374.7	40.8	60.43
333.15 K	1339	1.4042	1363.8	40.5	49.62

CCCCn1cc[n+](C)c1.O=S(=O)([O-])O [1-butyl-3-methylimidazolium hydrogen sulfate]
Details	mass density, [1] [kg/m3]	refractive index, [2]	speed of sound, [1] [m/s]	surface tension liquid-gas, [1] [mN/m]	viscosity, [1] [mPa·s]
298.15 K	1224	1.5043	1689.8	43.6	439.36
303.15 K	1220	1.5	1676.7	43.2	321.95
308.15 K	1217	1.4965	1664.3	42.8	240.81
313.15 K	1214	1.4914	1652.1	42.4	183.54
318.15 K	1211	1.4857	1640.2	42	142.55
323.15 K	1208	1.4813	1628.5	41.7	112.37
328.15 K	1204	1.4762	1615.5	41.3	89.95
333.15 K	1201	1.4721	1601.5	40.9	72.88

COS(=O)(=O)[O-].Cn1cc[n+](C)c1 [1,3-dimethylimidazolium methylsulfate]
Details	mass density, [1] [kg/m3]	refractive index, [2]	speed of sound, [1] [m/s]	surface tension liquid-gas, [1] [mN/m]	viscosity, [1] [mPa·s]
298.15 K	1329	1.4817	1811.5	57.6	71.7
303.15 K	1323	1.4811	1799.4	57.3	57.6
308.15 K	1319	1.4804	1787.3	56.8	46.93
313.15 K	1316	1.4797	1775.4	56.4	38.81
318.15 K	1312	1.4792	1763.6	56	32.52
323.15 K	1308	1.4785	1751.9	55.5	27.59
328.15 K	1305	1.4779	1740.3	55.1	23.67
333.15 K	1302	1.4771	1728.8	54.8	20.5

CCn1cc[n+](C)c1.COS(=O)(=O)[O-] [1-ethyl-3-methylimidazolium methylsulfate]
Details	mass density, [1] [kg/m3]	refractive index, [2]	speed of sound, [1] [m/s]	surface tension liquid-gas, [1] [mN/m]	viscosity, [1] [mPa·s]
298.15 K	1292	1.4741	1762.1	39.8	94.91
303.15 K	1289	1.4739	1750.4	39.5	76.8
308.15 K	1285	1.4735	1738.7	39.2	61.66
313.15 K	1282	1.4721	1727	38.9	51.28
318.15 K	1279	1.4716	1715.5	38.8	42.42
323.15 K	1275	1.4706	1704	38.4	35.33
328.15 K	1272	1.4702	1692.6	38.2	30.11
333.15 K	1268	1.4698	1681.3	38	26.25

CCCCCCCC[n+]1ccn(C)c1.[Cl-] [1-methyl-3-octylimidazolium chloride]
Details	mass density, [1] [kg/m3]	refractive index, [2]	speed of sound, [1] [m/s]	surface tension liquid-gas, [1] [mN/m]	viscosity, [1] [mPa·s]
298.15 K	1010	1.5088	1687.2	32.5	13267
303.15 K	1007	1.5085	1667.7	32.2	7770.4
308.15 K	1004	1.5061	1646.1	31.9	4755.2
313.15 K	1001	1.5058	1619.6	31.6	3006.7
318.15 K	998	1.5054	1597.1	31.3	1967.6
323.15 K	995	1.5048	1577.4	31	1323.4
328.15 K	992	1.5037	1559.6	30.7	914.13
333.15 K	989	1.5029	1543	30.4	646.96

CC(C)C[P+](C)(CC(C)C)CC(C)C.Cc1ccc(S(=O)(=O)[O-])cc1 [triisobutylmethylphosphonium p-toluenesulfonate]
Details	mass density, [1] [kg/m3]	refractive index, [2]	speed of sound, [1] [m/s]	surface tension liquid-gas, [1] [mN/m]	viscosity, [1] [mPa·s]
298.15 K	1068	1.5185	1628.8	33.9	2132.4
303.15 K	1065	1.5181	1610.6	33.8	1363.2
308.15 K	1062	1.5174	1585.6	33.6	896.08
313.15 K	1059	1.516	1567.6	33.4	606.71
318.15 K	1056	1.5151	1551.1	33.2	422.49
323.15 K	1053	1.5144	1535.7	32.9	302.17
328.15 K	1050	1.5123	1521.5	32.8	221.27
333.15 K	1047	1.5119	1508.3	32.6	165.53

CCCCCCn1cc[n+](C)c1.F[P-](F)(F)(F)(F)F [1-hexyl-3-methylimidazolium hexafluorophosphate]
Details	mass density, [1] [kg/m3]	refractive index, [2]	speed of sound, [1] [m/s]	surface tension liquid-gas, [1] [mN/m]	viscosity, [1] [mPa·s]
298.15 K	1292	1.4179	1424.4	37.2	349.17
303.15 K	1288	1.4161	1411.3	36.9	253.96
308.15 K	1284	1.4148	1399.6	36.6	188.77
313.15 K	1280	1.4134	1386.7	36.3	142.99
318.15 K	1276	1.4115	1374.9	36	110.24
323.15 K	1272	1.4104	1363.4	35.7	86.42
328.15 K	1268	1.4088	1352.1	35.4	68.87
333.15 K	1264	1.4075	1340.8	35.1	55.62
